Assay results taken from article PMC13327620, “A Deep‐Red‐Absorbing Osmium(II) Complex as a Photosensitizer for Photodynamic Therapy Inducing Immunogenic Cell Death” (Angewandte Chemie (International Ed. in English), 2026).

Tests used:
Format in all cases: cell-based, mouse
HMGB‐1 = test: Immunofluorescence staining of HMGB-1 (release) in CT26 cells; details: CT26, compounds at IC50, illumination at 740 and 770 nm
Experimental: (§1) Scientific, Catalog no.15 5411) at a d ensity of 8,00 0 cells p er well and cultu red fo r 24 h at 37 °C with 5 % CO2. T he cells wer e then treated with a solution of the compounds at a concentration corresponding to the IC50 for 4 h. After refreshing the medium, cells were subjected to irradiation and incubated for an additional 12 h. Subsequently, the cells were fix ed with 4% paraformaldehyde and immunostained with Anti- Calreticulin antibody (Abcam, Catalog no. ab2907) diluted 1/1000 at 4 °C overnight. Cells were then washed three times with PBS, treated with Goat Anti- Rabbit IgG H&L (Alexa […]
(§2) temperature in the dark, washed in PBS and treat ed with 10 µg/mL Hoechst for 15 min.
After a final wash, cells were analyzed by confocal microscopy as det ailed above.
Immunofluorescence st aining of HMGB-1
CT26 or MCA205 cells were seeded in Lab -Te k ® Chambered Coverglass System (Thermo Fisher Scientific, Catalog no.155411) at a density of 8,000 cells per well and cultured for 24 h at 37 °C with 5% CO2. The cells were then treated with a solution of the compounds at a concentration corresponding to the IC50 for 4 h. After refreshing the medium, cells were subjected to irradiation and incubated for an additional 12 h.
Subsequently, the cells were fixed with 4% paraformaldehyde, perm eabilized with 0.2% Triton X-100 and immunostained using anti-HMGB1 antibody [EPR3507] […]

ATP release = test: Detection of extracellular ATP in CT26 cells; details: CT26, irradiated at 740 nm
Experimental: We finally measured ATP release, another important event in ICD, using a bioluminescence detection kit (Figure 3E).
as §1, §2
After a final wash, cells were analyzed by confocal microscopy as det ailed above. […]
incubated for 24 h. Cells were then treat ed with the determined IC50 of complexes and irradiated or kept in the dark. Supernatants were collected 12 h post-t reatm ent, and the extracellular ATP content was measured with Adenosine 5′ -triphosphate (ATP) Bioluminescent Assay Kit (Sigma-Aldrich) according tomanufacturer ’s ins truction. […]
556419) and PI (BD Biosciences, Catalog no.51- 66211E). CT26- luc cells were analyzed by flow cytometry (Beckm an Coulter Life Sciences, CytoFLEX LX Flow Cytometer). […]

CT26 cells = test: ICD in vitro, summary of the three hallmarks
Experimental: A weak ICD was present in cells treated with 6.12 µM Os2 in the dark (limited translocation of CRT) and Ce6‐treated cells under 770 nm light (partial release of HMGB‐1).

## C=Cc1c(C)c2cc3nc(c(CC(=O)O)c4[nH]c(cc5nc(cc1[nH]2)C(C)=C5CC)c(C)c4C(=O)O)[C@@H](CCC(=O)O)[C@@H]3C [Ce6, chlorin e6]
HMGB‐1
  HMGB‐1 release: a minority
ATP release
  ATP release: significantly enhanced ATP release
CT26 cells; CT26, 770 nm light
  ICD (all three hallmarks): weak ICD
CT26 cells; CT26, illumination at 740 nm
  ICD (all three hallmarks): strong ICD
